Data from the supplement of paper PMC4977894.
Structures can show the parent of a compound that is named as a salt. ± gives the standard deviation of the averaged measurements.

Experiments:
[1] = tested on: Homo sapiens (human subject panel, olfactory perception); assay: perceived odor familiarity rating (rating 0-100); higher = more familiar
Description: (§1)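 Human olfactory psychophysics. 55 healthy subjects (after excluding 6 low performers) sniffed 1 mL of each odorant diluted in paraffin oil (vials, two dilutions per molecule, 20 molecules presented twice). Each subject rated intensity, pleasantness and familiarity on a 0-100 slider, starting at 50 and required to move. Ratings were given only when the subject reported detecting a smell; per-subject ratings are averaged over subjects.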

[2] = tested on: Homo sapiens (human subject panel, olfactory perception); assay: perceived odor pleasantness rating (rating 0-100); higher = more pleasant
Description: as §1

[3] = tested on: Homo sapiens (human subject panel, olfactory perception); assay: perceived odor intensity rating (rating 0-100); higher = stronger perceived smell
Description: as §1

[4] = odor dilution in paraffin oil: 1/10
[5] = odor dilution in paraffin oil: 1/1,000
[6] = odor dilution in paraffin oil: 1/100,000
[7] = odor dilution in paraffin oil: 1/10,000,000

Row | SMILES | perceived odor familiarity rating [1, 4] | perceived odor familiarity rating [1, 5] | perceived odor pleasantness rating [2, 4] | perceived odor pleasantness rating [2, 5] | perceived odor intensity rating [3, 4] | perceived odor intensity rating [3, 5] | perceived odor familiarity rating [1, 6] | perceived odor pleasantness rating [2, 6] | perceived odor intensity rating [3, 6] | perceived odor familiarity rating [1, 7] | perceived odor pleasantness rating [2, 7] | perceived odor intensity rating [3, 7]
1 | N=C(N)NCCC[C@H](N)C(=O)O [L-Arginine] | 29.4 ± 33 | 30.3 ± 24 | 47.9 ± 24 | 44.6 ± 19 | 19.2 ± 25 | 20.4 ± 22 |  |  |  |  |  | 
2 | CC(=O)/C=C/C1=C(C)CCCC1(C)C [beta-Ionone] |  | 52.4 ± 30 |  | 49.2 ± 27 |  | 69.7 ± 25 | 49.8 ± 31 | 62.6 ± 25 | 50.6 ± 32 |  |  | 
3 | CCCCCCCCCCCCCC(=O)OC(C)C [Isopropyl myristate] | 24.4 ± 24 | 35.2 ± 26 | 45.4 ± 21 | 50.6 ± 23 | 26 ± 27 | 20.3 ± 25 |  |  |  |  |  | 
4 | CCCCC(CC)C(=O)O (stereo unspecified) [2-Ethylhexanoic acid] | 46.6 ± 29 | 47.7 ± 28 | 28.4 ± 21 | 38.1 ± 22 | 73.7 ± 23 | 47.8 ± 31 |  |  |  |  |  | 
5 | CC(C)Cc1nccs1 [2-Isobutylthiazole] |  |  |  |  |  |  | 46.3 ± 29 | 41.4 ± 26 | 61.3 ± 26 | 32.4 ± 31 | 46.4 ± 23 | 31.2 ± 31
6 | c1ccc2ncccc2c1 [Quinoline] |  | 47.7 ± 34 |  | 22.4 ± 24 |  | 80.7 ± 18 | 41.4 ± 26 | 34.1 ± 24 | 56.4 ± 27 |  |  | 
7 | COC(=O)CCSC [Methyl 3-(methylthio)propionate] |  |  |  |  |  |  | 31 ± 25 | 41 ± 21 | 25.6 ± 28 | 40.3 ± 32 | 43.2 ± 26 | 27.7 ± 30
8 | CSc1ccoc1C [2-Methyl-3-methylthiofuran] |  |  |  |  |  |  | 48.1 ± 28 | 24.5 ± 19 | 66.8 ± 24 | 33 ± 24 | 39.4 ± 20 | 31.4 ± 28
9 | c1coc(CSCc2ccco2)c1 [2,2'-(Thiodimethylene)difuran] |  | 44.9 ± 32 |  | 20.1 ± 23 |  | 77.1 ± 24 | 52 ± 32 | 26.9 ± 24 | 73.5 ± 22 |  |  | 
10 | CCCC(O)CC (stereo unspecified) [3-hexanol (replicate)] |  | 50.5 ± 34 |  | 32.3 ± 22 |  | 68.9 ± 28 | 34.2 ± 26 | 46.6 ± 22 | 30.2 ± 30 |  |  | 
11 | CCCCCC(=O)O [caproic acid] |  | 46.7 ± 33 |  | 14.3 ± 19 |  | 84.3 ± 15 | 45.1 ± 29 | 19.4 ± 19 | 66.5 ± 28 |  |  | 
12 | C=CCOC(=O)C(CC)CC [Allyl 2-ethylbutyrate] |  | 51.6 ± 29 |  | 51.5 ± 28 |  | 68.5 ± 28 | 44.1 ± 30 | 67 ± 19 | 33.9 ± 28 |  |  | 
13 | C=CC(O)CC (stereo unspecified) [1-Penten-3-ol] |  | 43 ± 35 |  | 40.7 ± 29 |  | 53 ± 32 | 34.7 ± 24 | 43.3 ± 22 | 31.3 ± 32 |  |  | 
14 | COc1ccc(C(C)=O)cc1OC [3,4-Dimethoxyacetophenone] | 48.6 ± 30 | 35.9 ± 26 | 38.9 ± 26 | 51.4 ± 20 | 61.7 ± 26 | 26.5 ± 30 |  |  |  |  |  | 
15 | CCCCCCCC(=O)O [Octanoic acid] |  | 52.1 ± 33 |  | 26.6 ± 19 |  | 68.6 ± 26 | 45.3 ± 32 | 35.2 ± 20 | 49.5 ± 33 |  |  | 
16 | CC12CCC(CC1=O)C2(C)C (stereo unspecified) [Camphor] |  | 54.4 ± 30 |  | 49.5 ± 25 |  | 57.4 ± 30 | 31.3 ± 29 | 53.1 ± 22 | 17.3 ± 20 |  |  | 

Row | SMILES | perceived odor familiarity rating [1, 4] | perceived odor familiarity rating [1, 5] | perceived odor pleasantness rating [2, 4] | perceived odor pleasantness rating [2, 5] | perceived odor intensity rating [3, 4] | perceived odor intensity rating [3, 5] | perceived odor familiarity rating [1, 6] | perceived odor pleasantness rating [2, 6] | perceived odor intensity rating [3, 6] | perceived odor familiarity rating [1, 7] | perceived odor pleasantness rating [2, 7] | perceived odor intensity rating [3, 7]
17 | OCC(O)CO [glycerol] | 33.6 ± 28 | 31.8 ± 30 | 48.1 ± 31 | 42.7 ± 25 | 31.2 ± 33 | 26.8 ± 29 |  |  |  |  |  | 
18 | SCCc1cnccn1 [Pyrazineethanethiol] |  |  |  |  |  |  | 37.2 ± 33 | 45.4 ± 26 | 33.8 ± 38 | 29.8 ± 25 | 49.2 ± 20 | 23.6 ± 22
19 | CCSCC [Diethyl sulfide] |  |  |  |  |  |  | 37.5 ± 27 | 24.2 ± 22 | 62.5 ± 32 | 42 ± 27 | 43.8 ± 23 | 19.7 ± 27
20 | O=C(O)C(O)C(O)C(=O)O (racemic) [DL-Tartaric acid] | 40.5 ± 25 | 26.4 ± 28 | 48.3 ± 20 | 52.1 ± 19 | 30.6 ± 30 | 26.4 ± 30 |  |  |  |  |  | 
21 | CCCCOC(=O)CC [Butyl Propionate] |  | 50.6 ± 30 |  | 54.6 ± 26 |  | 62 ± 25 | 31.9 ± 33 | 46.5 ± 25 | 18 ± 25 |  |  | 
22 | CCc1nccnc1C(C)=O [2-Acetyl-3-ethylpyrazine] |  | 57.2 ± 29 |  | 25.7 ± 23 |  | 79.4 ± 20 | 52.4 ± 30 | 41.2 ± 23 | 46.3 ± 30 |  |  | 
23 | CCCOC(=O)CCC [propyl butyrate] |  | 52.5 ± 27 |  | 42.5 ± 27 |  | 64.7 ± 27 | 39.4 ± 27 | 33.6 ± 25 | 36.7 ± 31 |  |  | 
24 | CCCCCCCCCCC [undecane] | 41.7 ± 32 | 35 ± 29 | 32.3 ± 21 | 53.3 ± 23 | 56.4 ± 31 | 21 ± 26 |  |  |  |  |  | 
25 | CCCCCCC1CCCC(=O)O1 (stereo unspecified) [delta-Undecalactone] |  | 51.5 ± 33 |  | 60.7 ± 31 |  | 64.9 ± 28 | 41.4 ± 30 | 60.7 ± 25 | 34.4 ± 30 |  |  | 
26 | CCCCCCCCCCCC(=O)O [Lauric acid (replicate)] | 50.6 ± 32 | 34.1 ± 27 | 28.8 ± 22 | 35.4 ± 22 | 72.2 ± 25 | 36 ± 32 |  |  |  |  |  | 
27 | C=CCOC(=O)CCC [Allyl butyrate] |  | 45.2 ± 31 |  | 23.7 ± 24 |  | 78.6 ± 20 | 49.2 ± 28 | 33.2 ± 24 | 54.3 ± 31 |  |  | 
28 | CCCCCCCCOC(=O)C(C)C [Octyl isobutyrate] |  | 38.9 ± 27 |  | 55.8 ± 21 |  | 29.9 ± 26 | 36 ± 31 | 53.4 ± 20 | 17.7 ± 20 |  |  | 
29 | CCCCCCOC=O [Hexyl Formate] |  | 42.8 ± 32 |  | 49 ± 28 |  | 60.7 ± 29 | 35.5 ± 28 | 42.2 ± 23 | 33.9 ± 30 |  |  | 
30 | CCC(O)CC [3-pentanol] |  | 58.3 ± 32 |  | 34 ± 26 |  | 76.4 ± 18 | 44 ± 33 | 33.4 ± 25 | 39.4 ± 35 |  |  | 
31 | C=CCSCC=C [Allyl Sulfide] |  |  |  |  |  |  | 40.8 ± 30 | 37.2 ± 25 | 43.2 ± 35 | 35.4 ± 25 | 42.7 ± 23 | 27.3 ± 24
